Assay results reported in publication PMC2967674 (Bioorganic & medicinal chemistry, 2009).
Read-outs that look alike come from different tables or passages of the source. Each block holds one compound with its values, some of them ahead of it.

Tests used:
[1] = molecular target: T1, System xc^− transporter (SXc^−) (Homo sapiens, UniProt Q9UPY5); format: cell-based; settings: SNB-19 cells; for inhibitory activity at SXc^− (in words): initial screen at a single concentration (250 μM or 500 μM)
T1 sequence (Q9UPY5 1-501): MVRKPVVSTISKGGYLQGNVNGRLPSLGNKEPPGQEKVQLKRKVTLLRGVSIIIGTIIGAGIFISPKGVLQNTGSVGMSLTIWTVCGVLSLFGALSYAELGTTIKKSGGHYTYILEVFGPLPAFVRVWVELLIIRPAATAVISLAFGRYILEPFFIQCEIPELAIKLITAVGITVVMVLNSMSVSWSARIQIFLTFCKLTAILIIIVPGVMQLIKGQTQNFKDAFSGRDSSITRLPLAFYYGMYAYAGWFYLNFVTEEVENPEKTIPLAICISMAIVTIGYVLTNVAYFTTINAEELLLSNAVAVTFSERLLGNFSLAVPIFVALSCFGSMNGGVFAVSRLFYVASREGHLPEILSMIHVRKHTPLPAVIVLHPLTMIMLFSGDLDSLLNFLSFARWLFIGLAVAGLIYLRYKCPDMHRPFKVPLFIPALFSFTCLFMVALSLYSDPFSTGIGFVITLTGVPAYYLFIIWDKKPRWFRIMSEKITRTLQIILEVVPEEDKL
T1 sequence (P08195 1-529 partner): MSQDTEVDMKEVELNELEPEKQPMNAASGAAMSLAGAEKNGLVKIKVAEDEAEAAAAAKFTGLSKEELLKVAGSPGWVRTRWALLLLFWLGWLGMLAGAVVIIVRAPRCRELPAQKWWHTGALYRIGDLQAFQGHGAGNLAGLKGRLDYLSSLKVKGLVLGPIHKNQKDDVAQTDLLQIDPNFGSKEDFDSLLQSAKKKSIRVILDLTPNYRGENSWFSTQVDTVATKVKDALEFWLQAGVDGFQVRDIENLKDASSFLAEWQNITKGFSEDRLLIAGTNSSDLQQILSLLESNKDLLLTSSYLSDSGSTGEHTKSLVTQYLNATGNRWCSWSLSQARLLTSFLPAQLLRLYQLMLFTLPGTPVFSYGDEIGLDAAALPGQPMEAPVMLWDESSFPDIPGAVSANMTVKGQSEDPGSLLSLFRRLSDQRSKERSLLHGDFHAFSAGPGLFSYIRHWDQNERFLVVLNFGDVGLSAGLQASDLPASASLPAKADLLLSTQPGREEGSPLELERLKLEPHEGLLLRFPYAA

SXc^− [2] = settings: read-out: Ki at SXc^−; cited from earlier work
SXc^− [3] = settings: cited from earlier work
AMPA receptor = settings: brain slice; cited from earlier work
SXc^− [4] = molecular target: T2, SXc^− (Homo sapiens, UniProt Q9UPY5); format: cell-based; settings: SNB-19 cells, Na-free; for substrate-induced efflux of L-Glu (substrate activity): 500 μM; for attenuation of L-Cys2-induced efflux of L-Glu: added together with L-cystine
T2 sequence (Q9UPY5 1-501): T1 sequence (Q9UPY5 1-501)
T2 sequence (P08195 1-529 partner): T1 sequence (P08195 1-529 partner)

GluR2 = settings: S1S2 construct filter assay; Gouaux, personal communication; cited from earlier work
[5] = Conversion of open hydrazone to closed isoxazolo[3,4-d]pyridazinone in solution; format: physicochemical; settings: on standing in solution, 11a to 13a

Compound: 4-{1-[(3,5-Bis-trifluoromethyl-phenyl)-hydrazono]-ethyl}-5-(2-naphthalen-2-yl-ethyl)-isoxazole-3-carboxylic acid [Compound 11e]
inhibition of SXc^−-mediated L-Glu uptake ([1]; compound 500 μM (100 minus % of control of Table 2)): 86%
inhibitory activity at SXc^− (in words) [1]: moderate amount of inhibitory activity

Compound: N[C@H](C(=O)O)c1ccc(C(=O)O)cc1 [Compound 4-S-CPG, 4-S-carboxy-phenylglycine]
Ki (SXc^− [2]): ~5 µM
substrate activity at SXc^− (in words) (SXc^− [3]): essentially a non-substrate inhibitor

Compound: Cc1onc(O)c1C[C@H](N)C(=O)O [Compound 6, aminomethyl isoxazole propionic acid, reference compound]
inhibitory activity at SXc^− (in words) [1]: no discernable activity

Compound: Cc1onc(C(=O)O)c1C[C@H](N)C(=O)O [Compound 7, amino-3-carboxy-5-methylisoxazole propionic acid, reference compound]
inhibitory activity at SXc^− (in words) [1]: no discernable activity

Compound: N[C@@H](Cc1c(C(=O)O)noc1CCc1ccccc1)C(=O)O [Compound 7d]
inhibitory activity at SXc^− (in words) [1]: markedly inhibit
displacement of radiolabeled AMPA (AMPA receptor): essentially no ability to displace radiolabeled AMPA

Compound: C/C(=N\NC(N)=O)c1c(C(=O)O)noc1C [Compound 9b]
GluR2 binding (GluR2): no detectable GluR2 binding

Compound: C/C(=N\Nc1ccc([N+](=O)[O-])cc1[N+](=O)[O-])c1c(C(=O)O)noc1C [Compound 11d, 4-{1-[(2,4-Dinitro-phenyl)-hydrazono]-ethyl}-5-methyl-isoxazole-3-carboxylic acid]
GluR2 binding (GluR2): no detectable GluR2 binding

Compound: C/C(=N\Nc1ccc([N+](=O)[O-])cc1[N+](=O)[O-])c1c(C(=O)O)noc1COCc1ccc2ccccc2c1 [Compound 17, 4-{1-[(2,4-Dinitro-phenyl)-hydrazono]-ethyl}-5-(naphthalen-2-ylmethoxymethyl)-isoxazole-3-carboxylic acid]
inhibitory activity at SXc^− (in words) [1]: virtually devoid of activity

Compound: N[C@@H](Cn1oc(=O)[nH]c1=O)C(=O)O [QA, quisqualate]
Ki (SXc^− [2]): ~5 µM
rate of exchange with L-Glu relative to L-Cys2 (SXc^− [3]): 35%

Compound: L-cystine [reference compound]
substrate-induced efflux of L-Glu (substrate activity) (SXc^− [4]): produced a significant efflux of L-glutamate over baseline

Now from value to compound, other results behind:

inhibitory activity at SXc^− (in words) [1]: markedly inhibit
Compound: N[C@@H](Cc1c(C(=O)O)noc1COCc1ccccc1)C(=O)O [Compound 7e, 4-[(2R,S)-2-amino-2-carboxyethyl]-5-[benzyloxymethyl]isoxazole-3-carboxylic acid]

inhibitory activity at SXc^− (in words) [1]: markedly inhibit
Compound: N[C@@H](Cc1c(C(=O)O)noc1CCc1cccc2ccccc12)C(=O)O [Compound 7f]
displacement of radiolabeled AMPA (AMPA receptor): essentially no ability to displace radiolabeled AMPA

inhibitory activity at SXc^− (in words) [1]: markedly inhibit
attenuation of L-Cys2-induced efflux of L-Glu (SXc^− [4]; listed as S-2-naphthyl-ACPA): attenuate L-cystine-induced efflux
Compound: N[C@@H](Cc1c(C(=O)O)noc1CCc1ccc2ccccc2c1)C(=O)O [Compound 7g]
substrate-induced efflux of L-Glu (substrate activity) (SXc^− [4]): did not induce an efflux of L-Glu over background levels
attenuation of L-Cys2-induced efflux of L-Glu (SXc^− [4]): did attenuate the ability of L-Cys2 to exchange with intracellular L-Glu
displacement of radiolabeled AMPA (AMPA receptor): essentially no ability to displace radiolabeled AMPA

inhibitory activity at SXc^− (in words) [1]: moderate amount of inhibitory activity
Compound: C/C(=N\NC(=O)Nc1ccccc1)c1c(C(=O)O)noc1C [Compound 9c]
GluR2 binding (GluR2): no detectable GluR2 binding

time for the open form to convert to the closed [3,4-d] form in solution [5]: a matter of a few hours
Compound: C/C(=N\Nc1ccccc1)c1c(C(=O)O)noc1C [Compound 11a, 5-Methyl-4-[1-(phenyl-hydrazono)-ethyl]-isoxazole-3-carboxylic acid]
